According to patent US8158621B2, “Methods of treating or preventing autoimmune diseases with 2,4-pyrimidinediamine compounds” (Rigel Pharmaceuticals, Inc., priority 2002, dated 2012):
pIC50: −log10 of the molar value. Read-outs that look alike come from different tables or passages of the source.

System: Human Jurkat T-cells (clone N)
Assay: Jurkat T-cell activation (anti-TCR, CD69 upregulation)
Assay type: cell-based
How it was run: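 Readout is CD69 upregulation by flow cytometry (anti-CD69-APC, 20 min at 4 °C) after 20 h anti-TCR (C305, 500 ng/ml) stimulation at 37 °C.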

| pIC50 | pIC50 (Homo sapiens, Jurkat) | SMILES | also measured |
| --- | --- | --- | --- |
| 5.06 |  | ON=C(c1ccccc1)c1cccc(Nc2ncc(F)c(Nc3cccc(C(=NO)c4ccccc4)c3)n2)c1 [Compound R950380] |  |
| 5.59 |  | CNC(=O)CNc1cccc(Nc2ncc(F)c(Nc3ccc4c(c3)OCCO4)n2)c1 [Compound R950191] |  |
| 4.91 |  | CNC(=O)COc1cccc(Nc2ncc(F)c(Nc3cc(C)ccc3Cl)n2)c1 [Compound R926840] |  |
| 4.38 |  | CCCCNC(=O)COc1ccc(Nc2ncc(C#N)c(Nc3ccc(OCC(=O)NCCCC)cc3)n2)cc1 [Compound R925860] |  |
|  | < 5.00 | Oc1cccc(Nc2nc(Cl)c(Cl)c(Nc3cccc(O)c3)n2)c1 [Compound R926591] |  |
| 5.74 |  | CNC(=O)COc1cccc(Nc2ncc(F)c(Nc3ccc(OC(C)C)cc3)n2)c1 [Compound R926730] |  |
| < 5.00 |  | CC(=O)N(C(C)=O)c1cccc(N(C(C)=O)c2ncc(F)c(N(C(C)=O)c3cccc(N(C(C)=O)C(C)=O)c3)n2)c1 [Compound R950247] |  |
|  | 5.41 | CCOC(=O)c1cc2cc(Nc3ncc(F)c(Nc4ccc5c(c4)OCCO5)n3)ccc2[nH]1 [Compound R926476] |  |
| < 5.00 |  | COc1cc(C(=O)NS(=O)(=O)c2ccccc2C)ccc1Cn1ncc2ccc(Nc3ncc(F)c(Nc4ccc(OC(C)C)cc4)n3)cc21 [Compound R935322] |  |
| 6.07 |  | CNC(=O)COc1cccc(Nc2ncc(F)c(Nc3ccc4c(c3)-n3ccnc3CO4)n2)c1 [Compound R935271] |  |
| 4.95 |  | COC(=O)c1cnc(Nc2ccc(OCC(=O)N3CCCC3)cc2)nc1Nc1ccc(OCC(=O)N2CCCC2)cc1 [Compound R926559] |  |
| 4.75 |  | O=C(COc1cccc(Nc2ncc(F)c(Nc3cc(Cl)c(O)c(Cl)c3)n2)c1)N1CCNCC1 [Compound R950188] |  |
| 5.57 |  | O=C(c1cc2cc(Nc3ncc(F)c(Nc4ccc5c(c4)OCCO5)n3)ccc2o1)N1CCCNCC1 [Compound R926767] |  |
| < 5.00 |  | CCOC(=O)COc1cccc(Nc2ncc(C(=O)OCC)c(Nc3ccc4c(c3)OC(F)(F)C(F)(F)O4)n2)c1 [Compound R926799] |  |
| 5.13 |  | CNC(=O)Cn1ncc2ccc(Nc3nc(Nc4ccc5c(c4)OCCO5)ncc3F)cc21 [Compound R935225] |  |
|  | < 5.00 | Oc1cccc(Nc2nc(Nc3ccc4c(c3)CCO4)ncc2F)c1 [Compound R909250] |  |
| 4.77 |  | CCOC(=O)C(C)(C)Oc1cccc(Nc2ncc(F)c(Nc3ccc4c(c3)OCCO4)n2)c1 [Compound R926907] |  |
| 5.09 |  | CNC(=O)CCn1ncc2ccc(Nc3ncc(F)c(Nc4cccc(O)c4)n3)cc21 [Compound R935294] |  |
|  | < 5.00 | Cc1cc(O)cc(N(c2ccc3c(c2)OCCO3)c2nc(N)ncc2F)c1 [Compound R926893] |  |

| pIC50 | pIC50 (Homo sapiens, Jurkat) | SMILES | also measured |
| --- | --- | --- | --- |
| 5.49 |  | Cc1ccc(Nc2nc(Cl)ncc2F)cc1CNC(=O)OC(C)(C)C [Compound R926924] |  |
|  | < 5.00 | COc1ccc(Nc2ncc(Br)c(Nc3ccc(OC)c(-c4ccccc4)c3)n2)cc1-c1ccccc1 [Compound R925802] |  |
| 5.15 |  | CNC(=O)COc1cccc(Nc2ncc(F)c(Nc3ccc(OC)c(CN4CCOCC4)c3)n2)c1 [Compound R940314] |  |
| 5.36 |  | CC(CO)Nc1cccc(Nc2ncc(F)c(Nc3cccc(NC(C)CO)c3)n2)c1 (centres unmarked) [Compound R950171] |  |
| 5.55 |  | O=C(CNc1cccc(Nc2ncc(F)c(Nc3ccc4c(c3)OCCO4)n2)c1)N1CCOCC1 [Compound R950193] |  |
| 4.84 |  | CCOc1ccc(Nc2nc(Nc3ccc4c(c3)OCCO4)ncc2F)cc1 [Compound R920670] |  |
| < 5.00 |  | Oc1cccc(Nc2nc(Nc3cc(Br)cc(C(F)(F)F)c3)ncc2F)c1 [Compound R926846] |  |
|  | 4.73 | Oc1cccc(Nc2ncc(F)c(Nc3ccc4c(c3)C=CCC4)n2)c1 [Compound R926943] |  |
|  | 6.27 | Fc1cnc(Nc2ccc3cc[nH]c3c2)nc1Nc1ccc2c(c1)OCCO2 [Compound R926750] |  |
| 5.09 |  | COC(=O)Cn1ncc2ccc(Nc3nc(Nc4cccc(O)c4)ncc3F)cc21 [Compound R935220] |  |
| 5.64 |  | CCOC(=O)CCn1ncc2cc(Nc3ncc(F)c(Nc4ccc5c(c4)OCCO5)n3)ccc21 [Compound R935301] |  |
| 5.33 |  | NC(=O)COc1ccc(Nc2ncc(F)c(Nc3cccc(O)c3)n2)cc1 [Compound R945064] |  |
| 5.24 |  | CNC(=O)COc1cccc(Nc2ncc(F)c(Nc3ccc4c(c3)C(=NOC)CCO4)n2)c1 [Compound R950356] |  |
|  | 4.77 | Oc1ccc(CCNc2ccnc(NCCc3ccc(O)cc3)n2)cc1 [Compound R925790] |  |
| < 5.00 |  | COC(=O)c1cc2cc(Nc3ncc(F)c(Nc4ccc5cnn(CCC(=O)O)c5c4)n3)ccc2o1 [Compound R935296] |  |
| 5.75 |  | OCCNc1cccc(Nc2ncc(F)c(Nc3ccc4c(c3)OCCO4)n2)c1 [Compound R950208] |  |
|  | 5.22 | O=C(c1ccccc1)c1cccc(Nc2ncc(F)c(Nc3cccc(C(=O)c4ccccc4)c3)n2)c1 [Compound R950377] |  |
|  | 4.36 | COC(=O)c1cc(Nc2ncc(F)c(Nc3ccc(OC)c(C(=O)OC)c3)n2)ccc1OC [Compound R945066] |  |
|  |  | CCNC(=O)Oc1cccc(Nc2ncc(F)c(Nc3cccc(O)c3)n2)c1 [Compound R926928] | pIC50 (Homo sapiens): < 5.00 |

| pIC50 | pIC50 (Homo sapiens, Jurkat) | SMILES | also measured |
| --- | --- | --- | --- |
|  | 4.84 | COC(=O)c1ccc(Nc2ncc(F)c(Nc3ccc(C(=O)OC)c(OC)c3)n2)cc1OC [Compound R945065] |  |
|  | 5.43 | CC(C)Oc1ccc(Nc2ncc(F)c(Nc3ccc(C(C)(C)CO)cc3)n2)cc1 [Compound R935168] |  |
| 5.44 |  | CNC(=O)COc1cccc(Nc2ncc(F)c(Nc3cccc(N(CCO)CCO)c3)n2)c1 [Compound R950266] |  |
| < 5.00 |  | Fc1cnc(Nc2ccc3c(c2)CCO3)nc1Nc1ccc2c(c1)CCO2 [Compound R909237] |  |
|  | < 5.00 | CC(C)(C)c1ccc(Nc2nc(Nc3ccc4oc(C(=O)O)cc4c3)ncc2F)cc1 [Compound R926481] |  |
| < 5.00 |  | CCOC(=O)COc1ccc(Nc2nc(Cl)cc(NCC(=O)OC)n2)cc1 [Compound R926555] |  |
| 5.22 |  | COC(=O)COc1ccc(Nc2nc(Nc3ccc(OCC(N)=O)cc3)ncc2F)cc1 [Compound R945060] |  |
| 4.82 |  | N#CCOc1ccc(Nc2ncc(F)c(Nc3ccc(OCC#N)cc3)n2)cc1 [Compound R945032] |  |
| < 5.00 |  | Cc1ccc(-c2ccccc2)cc1Nc1ncc(F)c(Nc2cc(-c3ccccc3)ccc2C)n1 [Compound R926402] |  |
|  | 5.19 | COC(=O)c1cc(N)cc(Nc2ncc(F)c(Nc3cc(N)cc(C(=O)OC)c3)n2)c1 [Compound R950134] |  |
|  | < 5.00 | Fc1cnc(NCc2ccccc2)nc1NCc1ccccc1 [Compound R925772] |  |
|  | < 5.00 | CCOC(=O)C(C)(C)c1ccc(Nc2nc(Nc3ccc4c(c3)OCCO4)ncc2F)cc1 [Compound R935172] |  |
|  | 5.54 | Oc1cccc(Nc2ncc(F)c(Nc3ccc4[nH]ccc4c3)n2)c1 [Compound R926932] |  |
| 5.44 |  | CNC(=O)COc1cccc(Nc2ncc(F)c(Nc3ccc(OC)c(OC)c3)n2)c1 [Compound R926733] |  |
| < 5.00 |  | COC(=O)c1cc2ccc(Nc3ncc(F)c(Nc4cccc(O)c4)n3)cc2[nH]1 [Compound R926903] |  |
|  | < 5.00 | COc1ccc(CNc2ncc(F)c(Nc3ccc4c(c3)OCCO4)n2)cc1 [Compound R926230] |  |
| < 5.00 |  | Fc1cnc(NCc2ccc3c(c2)OCO3)nc1NCc1ccc2c(c1)OCO2 [Compound R925770] |  |
| 5.20 |  | O=C(CNc1cccc(Nc2ncc(F)c(Nc3cccc(NCCO)c3)n2)c1)NCCNCc1ccccc1 [Compound R950235] |  |
